Entries after “also recorded” stand apart in the source; their conditions may differ.
Experiment: UC781 drug stability in compounded polyurethane after extrusion and accelerated storage
Assay type: physicochemical
Conditions: 4-5 week, 60° C., with and without additives
Description: The drug stability in compounded lot #1100032 was also studied after extrusion and under accelerated storage conditions, with and without various antioxidants (Table 3).

CC(C)=CCOc1cc(NC(=S)c2ccoc2C)ccc1Cl [UC781]
UC781 stability in compounded lot #1100032: Irganox is incompatible with UC781; also recorded: best stability with BHT, EDTA or without any additives

— patent publication US9393311B2, “Intravaginal ring comprising polyurethane composition for drug delivery” (DSM IP ASSETS B.V., priority 2010, dated 2016)
